In ChEMBL document CHEMBL1148995, “Antitumor agents from bohemic acid complex, VI. Schaunardimycin” (J Nat Prod, 1984):

What was measured:
[1] = tested on: L1210; assay: Antitumor activity against mouse L1210 cells implanted in CDF1 mouse assessed as median survival time at 12.8 mg/kg, ip single dose on day 1; assay type: functional; conditions: route intraperitoneal
[2] = tested on: L1210; assay: Antitumor activity against mouse L1210 cells implanted in CDF1 mouse assessed as median survival time at 6.4 mg/kg, ip single dose on day 1; assay type: functional; conditions: route intraperitoneal
[3] = tested on: L1210; assay: Antitumor activity against mouse L1210 cells implanted in CDF1 mouse assessed as median survival time at 3.2 mg/kg, ip single dose on day 1; assay type: functional; conditions: route intraperitoneal
[4] = tested on: L1210; assay: Antitumor activity against mouse L1210 cells implanted in CDF1 mouse assessed as median survival time at 1.6 mg/kg, ip single dose on day 1; assay type: functional; conditions: route intraperitoneal
[5] = tested on: L1210; assay: Antitumor activity against mouse L1210 cells implanted in CDF1 mouse assessed as median survival time at 0.8 mg/kg, ip single dose on day 1; assay type: functional; conditions: route intraperitoneal
[6] = tested on: L1210; assay: Antitumor activity against mouse L1210 cells implanted in CDF1 mouse assessed as median survival time at 0.4 mg/kg, ip single dose on day 1; assay type: functional; conditions: route intraperitoneal
[7] = tested on: L1210; assay: Antitumor activity against mouse L1210 cells implanted in CDF1 mouse assessed as median survival time at 0.2 mg/kg, ip single dose on day 1; assay type: functional; conditions: route intraperitoneal
[8] = tested on: L1210; assay: Antitumor activity against mouse L1210 cells implanted in CDF1 mouse at 12.8 mg/kg, ip single dose on day 1 relative to control; assay type: functional; conditions: route intraperitoneal
[9] = tested on: L1210; assay: Antitumor activity against mouse L1210 cells implanted in CDF1 mouse at 6.4 mg/kg, ip single dose on day 1 relative to control; assay type: functional; conditions: route intraperitoneal
[10] = tested on: L1210; assay: Antitumor activity against mouse L1210 cells implanted in CDF1 mouse at 3.2 mg/kg, ip single dose on day 1 relative to control; assay type: functional; conditions: route intraperitoneal
[11] = tested on: L1210; assay: Antitumor activity against mouse L1210 cells implanted in CDF1 mouse at 1.6 mg/kg, ip single dose on day 1 relative to control; assay type: functional; conditions: route intraperitoneal
[12] = tested on: L1210; assay: Antitumor activity against mouse L1210 cells implanted in CDF1 mouse at 0.8 mg/kg, ip single dose on day 1 relative to control; assay type: functional; conditions: route intraperitoneal
[13] = tested on: L1210; assay: Antitumor activity against mouse L1210 cells implanted in CDF1 mouse at 0.4 mg/kg, ip single dose on day 1 relative to control; assay type: functional; conditions: route intraperitoneal
[14] = tested on: L1210; assay: Antitumor activity against mouse L1210 cells implanted in CDF1 mouse at 0.2 mg/kg, ip single dose on day 1 relative to control; assay type: functional; conditions: route intraperitoneal
[15] = tested on: Mus musculus; assay: Toxicity in mouse L1210 cells implanted CDF1 mouse assessed as average weight gain at 12.8 mg/kg, ip single dose on day 1; assay type: organism-based; parameters: dose 12.8 mg/kg, route intraperitoneal; conditions: in vivo
[16] = tested on: Mus musculus; assay: Toxicity in mouse L1210 cells implanted CDF1 mouse assessed as average weight gain at 6.4 mg/kg, ip single dose on day 1; assay type: organism-based; parameters: dose 6.4 mg/kg, route intraperitoneal; conditions: in vivo
[17] = tested on: Mus musculus; assay: Toxicity in mouse L1210 cells implanted CDF1 mouse assessed as average weight gain at 3.2 mg/kg, ip single dose on day 1; assay type: organism-based; parameters: dose 3.2 mg/kg, route intraperitoneal; conditions: in vivo
[18] = tested on: Mus musculus; assay: Toxicity in mouse L1210 cells implanted CDF1 mouse assessed as average weight gain at 1.6 mg/kg, ip single dose on day 1; assay type: organism-based; parameters: dose 1.6 mg/kg, route intraperitoneal; conditions: in vivo
[19] = tested on: Mus musculus; assay: Toxicity in mouse L1210 cells implanted CDF1 mouse assessed as average weight gain at 0.8 mg/kg, ip single dose on day 1; assay type: organism-based; parameters: dose 0.8 mg/kg, route intraperitoneal; conditions: in vivo
[20] = tested on: Mus musculus; assay: Toxicity in mouse L1210 cells implanted CDF1 mouse assessed as average weight gain at 0.4 mg/kg, ip single dose on day 1; assay type: organism-based; parameters: dose 0.4 mg/kg, route intraperitoneal; conditions: in vivo
[21] = tested on: Mus musculus; assay: Toxicity in mouse L1210 cells implanted CDF1 mouse assessed as average weight gain at 0.2 mg/kg, ip single dose on day 1; assay type: organism-based; parameters: dose 0.2 mg/kg, route intraperitoneal; conditions: in vivo
[22] = tested on: Mus musculus; assay: Toxicity in mouse L1210 cells implanted CDF1 mouse assessed as survivors on day 5 at 6.4 mg/kg, ip single dose on day 1; assay type: organism-based; parameters: dose 6.4 mg/kg, route intraperitoneal; conditions: in vivo
[23] = tested on: Mus musculus; assay: Toxicity in mouse L1210 cells implanted CDF1 mouse assessed as survivors on day 5 at 3.2 mg/kg, ip single dose on day 1; assay type: organism-based; parameters: dose 3.2 mg/kg, route intraperitoneal; conditions: in vivo
[24] = tested on: Mus musculus; assay: Toxicity in mouse L1210 cells implanted CDF1 mouse assessed as survivors on day 5 at 1.6 mg/kg, ip single dose on day 1; assay type: organism-based; parameters: dose 1.6 mg/kg, route intraperitoneal; conditions: in vivo
[25] = tested on: Mus musculus; assay: Toxicity in mouse L1210 cells implanted CDF1 mouse assessed as survivors on day 5 at 0.8 mg/kg, ip single dose on day 1; assay type: organism-based; parameters: dose 0.8 mg/kg, route intraperitoneal; conditions: in vivo
[26] = tested on: Mus musculus; assay: Toxicity in mouse L1210 cells implanted CDF1 mouse assessed as survivors on day 5 at 0.4 mg/kg, ip single dose on day 1; assay type: organism-based; parameters: dose 0.4 mg/kg, route intraperitoneal; conditions: in vivo
[27] = tested on: Mus musculus; assay: Toxicity in mouse L1210 cells implanted CDF1 mouse assessed as median survival time at 25.6 mg/kg, ip single dose on day 1; assay type: organism-based; parameters: dose 25.6 mg/kg, route intraperitoneal; conditions: in vivo
[28] = tested on: L1210; assay: Antitumor activity against mouse L1210 cells implanted in CDF1 mouse at 0.2 mg/kg, ip qd for 1 to 5 days relative to control; assay type: functional; conditions: route intraperitoneal

CC[C@@]1(O)C[C@H](O[C@H]2C[C@H](N(C)C)[C@H](O[C@H]3C[C@H](O)[C@H](O[C@H]4C[C@H](O)[C@H](O)[C@H](C)O4)[C@H](C)O3)[C@H](C)O2)c2c(cc3c(c2O)C(=O)c2c(O)ccc(O)c2C3=O)[C@H]1C(=O)OC [MARCELLOMYCIN]
MST [1]: 9.5 days | MST [2]: 8.5 days | MST [3]: 8.5 days | MST [4]: 8 days | MST [5]: 7 days | MST [6]: 6.5 days | MST [7]: 6 days | T/C [8]: 158% | T/C [9]: 142% | T/C [10]: 142% | T/C [11]: 133% | T/C [12]: 117% | T/C [13]: 108% | T/C [14]: 100% | Activity [15]: -1.9 g | Activity [16]: -1.7 g | Activity [17]: -0.5 g | weight gain [18]: 1.4 g | weight gain [19]: 1.8 g | weight gain [20]: 2.8 g | weight gain [21]: 2.7 g | Activity [22]: Active | Activity [23]: Active | Activity [24]: Active | Activity [25]: Active | Activity [26]: Active | Activity [27]: Toxic | T/C [28]: 117%
